Assay: Thermogravimetric analysis (TGA), thermal stability
Type: physicochemical
Conditions: Trios V3.0, 10° C./min, N2 atmosphere; FIG. 7
Procedure: Thermogravimetric analysis (TGA) and differential scanning calorimetry (DSC) analysis of the polymerizable liquid crystal compound according to Synthesis Example 1 are performed by using Trios V3.0 (TA Instrument, 10° C./min, N2 atmosphere). FIG. 7 is a drawing showing the thermogravimetric analysis of the polymerizable liquid crystal compound 1a-5 according to Synthesis Example 1, and FIG. 8 is a drawing showing the differential scanning calorimetry (DSC) analysis of the polymerizable liquid crystal compound 1a-5 according to Synthesis Example 1.
Referring to FIG. 7, the polymerizable liquid crystal compound 1a-5 of Synthesis Example 1 is decomposed at a temperature of greater than or equal to 300° C.

Decomposition temperature (TGA): greater than or equal to 300 °C
SMILES: C=CC(=O)OCCCOc1ccc(C(=O)OCc2ccc(C(=O)Oc3ccc(OC(=O)c4ccc(COC(=O)c5ccc(OCCCOC(=O)C=C)cc5)cc4)cc3)cc2)cc1 [Compound 1a-5]
